Measured values as given in PMC10797628.
Residue numbers refer to the chain shown, from its start.

Legend:
S5.42A 5-HT1A receptor = molecular target: T1, S5.42A 5-HT1A receptor (Homo sapiens, UniProt P08908, S199A); test: cAMP accumulation in HEK293T cells, S5.42A 5-HT1A; format: cell-based; set-up: mutated in house (Quikchange II) HTR01A0000; host or cells: HEK293T; settings: point-mutated receptor, 3 independent experiments, read-out: pEC50 5-HT1A Receptor S5.42A (converted)
T1 sequence (P08908 1-422 S199A): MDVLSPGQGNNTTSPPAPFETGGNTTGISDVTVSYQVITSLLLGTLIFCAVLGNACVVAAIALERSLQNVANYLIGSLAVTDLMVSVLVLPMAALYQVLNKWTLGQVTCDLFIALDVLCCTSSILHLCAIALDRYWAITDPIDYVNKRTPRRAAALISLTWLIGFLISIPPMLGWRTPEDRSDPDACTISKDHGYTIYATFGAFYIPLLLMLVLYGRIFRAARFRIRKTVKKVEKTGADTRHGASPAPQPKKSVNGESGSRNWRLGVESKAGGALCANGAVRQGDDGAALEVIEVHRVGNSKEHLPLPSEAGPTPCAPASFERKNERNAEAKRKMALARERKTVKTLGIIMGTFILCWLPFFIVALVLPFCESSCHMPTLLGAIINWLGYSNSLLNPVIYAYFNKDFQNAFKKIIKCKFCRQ
Protocol: (§1) Briefly, cells transfected with the desired receptor construct and compounds were incubated in the dark for 90 min at 37 °C. After incubation, cAMP detection reagents were added, and TR-FRET was used to quantify the cAMP produced.
(§2) The functional activity of compounds was determined by stimulating cells expressing the desired receptor with FSK and test compound in parallel with 12 known concentrations of cAMP. The known concentrations of cAMP were used to create a standard curve for each experiment that was used to interpolate the unknown values of cAMP in wells with test compounds. […] The EC50 and EMAX values were determined using the “dose response – log[agonist] vs response (three parameter)” nonlinear regression model in Prism and transformed to pEC50 values, reported as mean ± SD.
(§3) Summary of functional assay conditions at various 5-HT1 receptor point mutation constructs.

V3.33I 5-HT1A receptor = molecular target: T2, V3.33I 5-HT1A receptor (Homo sapiens, UniProt P08908, V117I); test: cAMP accumulation in HEK293T cells, V3.33I 5-HT1A; format: cell-based; set-up: mutated in house (Quikchange II) HTR01A0000; host or cells: HEK293T; settings: point-mutated receptor, 3 independent experiments, read-out: pEC50 5-HT1A Receptor V3.33I (converted)
T2 sequence (P08908 1-422 V117I): T1 sequence (P08908 1-422 S199A) with V117I, A199S
Protocol: as §1, §2, §3

Y5.38F 5-HT1A receptor [1] = molecular target: T3, Y5.38F 5-HT1A receptor (Homo sapiens, UniProt P08908, Y195F); test: Radioligand binding, Y5.38F 5-HT1A
T3 sequence (P08908 1-422 Y195F): T1 sequence (P08908 1-422 S199A) with Y195F, A199S
Protocol: 48 hours after transfection with the desired receptor construct, cells were isolated for saturation and competition binding assays as previously described.[47],[48],[57] Saturation and competition radioligand binding assays were conducted in an assay buffer consisting of 50 mM Tris HCl, 10 mM MgCl2, and 0.1 mM EDTA in filtered deionized water. […] Briefly, 5–10 μg of the receptor protein, as determined by a Thermo Fisher Pierce BCA protein assay kit, was incubated with 8 concentrations of radioligand in triplicate to determine total binding. […] Nonspecific binding was determined as above for saturation assays.
For radioligand binding data, nonspecific binding was subtracted from the total binding to get specific binding. Saturation binding data was fit to the “binding saturation-specific binding with hill slope” model. Competition binding data were fit to the “binding competition-one-site fit Ki” non-linear regression model and transformed to pKi values, reported as mean ± SD.
is 50 mM Tris HCl, 10 mM MgCl2 and 0.1 mM EDTA in filtered deionized water.

N7.39T 5-HT1A receptor = molecular target: T4, N7.39T 5-HT1A receptor (Homo sapiens, UniProt P08908, N386T); test: cAMP accumulation in HEK293T cells, N7.39T 5-HT1A; format: cell-based; set-up: mutated in house (Quikchange II) HTR01A0000; host or cells: HEK293T; settings: point-mutated receptor, 3 independent experiments, read-out: pEC50 5-HT1A Receptor N7.39T (converted)
T4 sequence (P08908 1-422 N386T): T1 sequence (P08908 1-422 S199A) with A199S, N386T
Protocol: as §1, §2, §3

Y5.38F 5-HT1A receptor [2] = molecular target: T3, Y5.38F 5-HT1A receptor; test: cAMP accumulation in HEK293T cells, Y5.38F 5-HT1A; format: cell-based; set-up: mutated in house (Quikchange II) HTR01A0000; host or cells: HEK293T; settings: point-mutated receptor, 3 independent experiments, read-out: pEC50 5-HT1A Receptor Y5.38F (converted)
Protocol: as §1, §2, §3

Compound: CN(C)[C@H]1CCc2c(cccc2-c2cccc3ccccc23)C1 [(S)-NAP]
- EC50 (S5.42A 5-HT1A receptor): 363 nM
- EC50 (V3.33I 5-HT1A receptor): 355 nM
- Ki (Y5.38F 5-HT1A receptor [1]): 60.3 nM
- EC50 (N7.39T 5-HT1A receptor): 347 nM
- EC50 (Y5.38F 5-HT1A receptor [2]): 380 nM

Compound: Fc1ccccc1-c1cccc2c1CC[C@H](N1CCCC1)C2 [(S)-PFPT]
- EC50 (S5.42A 5-HT1A receptor): 1.62 nM
- EC50 (V3.33I 5-HT1A receptor): 10.5 nM
- Ki (Y5.38F 5-HT1A receptor [1]): 1.74 nM
- EC50 (N7.39T 5-HT1A receptor): 25.1 nM
- EC50 (Y5.38F 5-HT1A receptor [2]): 2.09 nM
